How the values were obtained:
[1] = biological target: T1, renal transporter OAT1 (Homo sapiens, UniProt Q4U2R8); experiment: In vitro assessment of transporter interactions; type: in vitro ADME; settings: data not published
T1 sequence (Q4U2R8 1-563): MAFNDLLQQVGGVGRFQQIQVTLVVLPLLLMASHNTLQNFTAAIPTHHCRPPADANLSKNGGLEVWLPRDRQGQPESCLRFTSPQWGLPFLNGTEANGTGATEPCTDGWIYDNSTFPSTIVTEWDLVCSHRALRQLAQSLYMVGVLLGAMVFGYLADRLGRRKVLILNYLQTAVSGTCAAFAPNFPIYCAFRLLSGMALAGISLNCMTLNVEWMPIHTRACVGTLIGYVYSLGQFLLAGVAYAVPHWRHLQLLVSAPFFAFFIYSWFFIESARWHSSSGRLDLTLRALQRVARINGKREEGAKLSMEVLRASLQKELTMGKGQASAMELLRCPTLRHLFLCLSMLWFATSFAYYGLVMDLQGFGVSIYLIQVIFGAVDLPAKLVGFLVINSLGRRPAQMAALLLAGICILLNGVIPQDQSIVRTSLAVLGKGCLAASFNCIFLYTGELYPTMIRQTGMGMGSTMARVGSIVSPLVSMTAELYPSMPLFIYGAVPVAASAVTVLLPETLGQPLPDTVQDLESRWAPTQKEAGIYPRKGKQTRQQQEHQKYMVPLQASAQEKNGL

[2] = Part A single-ascending-dose plasma PK in healthy subjects; type: in vivo, human; settings: for half-life / AUC(0-inf) / Cmax / clearance / Tmax / AUC(0-t) / Vd: human, plasma; for Tmax: median; for Vd: read-out: Vss
Protocol: This was a 4-part, double-blind, placebo-controlled study (15 cohorts) of DUR administered as a 3-h i.v. infusion (except for cohort 4, in which a 2-h i.v. infusion was evaluated) (see Table S5 in the supplemental material).
(§1) The blank control matrix was made up of human plasma (BioreclamationIVT) diluted 1:1 with SigmaFast (reconstituted protease inhibitor cocktail tablet [product S8820; Sigma-Aldrich, St. Louis, MO] in 10 ml of water) for preparation of calibration standards and QC samples. […] A 100-μl aliquot of the supernatant was transferred to 96-well plates. Samples were diluted further with 400 μl of water, and 5 μl of sample was injected into the LC-MS/MS system for analysis. […] The LLOQ for all analytes was 5 ng/ml.
(§2) AUC was calculated using the log-linear trapezoidal rule.
(§3) Pharmacokinetic parameters were summarized at each assessment time point using the mean ± standard deviation (SD), the percent coefficient of variation (CV), median, minimum, and maximum. Single-ascending-dose study data were assessed for dose proportionality using Cmax and AUC, and accumulation ratios was determined using repeat-dose cohorts. […] Noncompartmental analysis of PK parameters was performed using Phoenix WinNonlin (v6.4) software to determine PK parameters.

[3] = Safety and tolerability (adverse events, laboratory values, vital signs, ECG) in healthy subjects; type: in vivo, human
Protocol: A routine physical examination, determination of vital signs (supine blood pressure, heart rate, respiratory rate, temperature), a 12-lead electrocardiogram (ECG), and clinical laboratory testing (serum chemistry, hematology, urinalysis) were performed at screening, at intervals during the study, and at the 14-day follow-up.
The intent-to-treat (ITT) population included all randomized subjects. The safety population was all randomized subjects who received any study drug.

[4] = clinical; settings: human, in vivo
Protocol: as §1, §2, §3

[5] = Protein binding in human plasma; type: in vitro ADME
[6] = cohort of elderly subjects, DUR 1 g
[7] = iv, 0.25 g, part A cohort 1, single 0.25 g, 3-h i.v. infusion
[8] = iv, 0.5 g, part A cohort 2, single 0.5 g, 3-h i.v. infusion
[9] = iv, 1 g, part A cohort 3, single 1.0 g, 3-h i.v. infusion
[10] = iv, 1 g, part A cohort 4, single 1.0 g, 2-h i.v. infusion
[11] = iv, 1 g, part A cohort 8 (elderly subjects >65 years), single 1.0 g, 3-h i.v. infusion
[12] = iv, 2 g, part A cohort 5, single 2.0 g, 3-h i.v. infusion
[13] = iv, 4 g, part A cohort 6, single 4.0 g, 3-h i.v. infusion
[14] = iv, 8 g, part A cohort 7, single 8.0 g, 3-h i.v. infusion
[15] = all subjects receiving the treatment

For CC1=C[C@@H]2CN(C(=O)N2OS(=O)(=O)O)[C@@H]1C(N)=O [DUR, Durlobactam], the “substrate of renal transporter OAT1” value [1] was “affinity of the substrate for the renal transporter OAT1”, the “increase in Cmax with 2-h infusion compared with 3-h infusion” value ([2]; cohort 4, DUR 1 g) was “approximately 50%” and the “increase in AUC in elderly subjects compared with younger subjects” value ([2]; cohort 8, DUR 1 g) was 2 fold. For the same compound, the “increase in Cmax in elderly subjects compared with younger subjects” value ([2]; cohort 8, DUR 1 g) was 1.8 fold, the “increase in exposure in elderly subjects” value [2, 6] was 100% and the “reduction of renal clearance in elderly subjects” value [2, 6] was “approximately 50%”. The “reduction of volume of distribution (V) in elderly subjects” value [2, 6] was “approximately 50%”, the half-life ([2]; intravenous, range across single doses of 0.25 g to 8 g, read-out: mean half-life (t1/2)) was 1.5 to 2.8 h and the AUC(0-inf) [2, 7] was 25.5 ± 3.7 µg·h/mL. It also gave a Cmax [2, 7] of 6900 ± 1000 ng/mL, a clearance [2, 7] of 167 mL/min and a half-life ([2]; iv, 0.25 g, part A cohort 1, single 0.25 g, 3-h i.v. infusion, mean ± SD, n=6, read-out: t1/2 (converted)) of 1.5 ± 0.1 h. The Tmax [2, 7] was 3 h, the AUC(0-t) ([2]; iv, 0.25 g, part A cohort 1, single 0.25 g, 3-h i.v. infusion, read-out: AUC0–24) was 25.5 ± 3.7 µg·h/mL and the AUC(0-t) ([2]; iv, 0.25 g, part A cohort 1, single 0.25 g, 3-h i.v. infusion, read-out: AUC0–t) was 25.4 ± 3.7 µg·h/mL. It also gave a Vd [2, 7] of 16.6 ± 3.6 L, an AUC(0-inf) [2, 8] of 47.8 ± 7.6 µg·h/mL and a Cmax [2, 8] of 9900 ± 2000 ng/mL. For the same compound, the clearance [2, 8] was 178 mL/min, the half-life ([2]; iv, 0.5 g, part A cohort 2, single 0.5 g, 3-h i.v. infusion, mean ± SD, n=6, read-out: t1/2 (converted)) was 2 ± 0.4 h and the Tmax [2, 8] was 3 h. The AUC(0-t) ([2]; iv, 0.5 g, part A cohort 2, single 0.5 g, 3-h i.v. infusion, read-out: AUC0–24) was 47.7 ± 7.5 µg·h/mL, the AUC(0-t) ([2]; iv, 0.5 g, part A cohort 2, single 0.5 g, 3-h i.v. infusion, read-out: AUC0–t) was 47.4 ± 7.7 µg·h/mL and the Vd [2, 8] was 25.8 ± 2.9 L. For the same compound, the AUC(0-inf) [2, 9] was 76.1 ± 10.5 µg·h/mL, the Cmax [2, 9] was 20700 ± 2800 ng/mL and the clearance [2, 9] was 223 mL/min. It also gave a half-life ([2]; iv, 1 g, part A cohort 3, single 1.0 g, 3-h i.v. infusion, mean ± SD, n=6, read-out: t1/2 (converted)) of 2 ± 0.3 h, a Tmax [2, 9] of 3 h and an AUC(0-t) ([2]; iv, 1 g, part A cohort 3, single 1.0 g, 3-h i.v. infusion, read-out: AUC0–24) of 76.1 ± 10.5 µg·h/mL. It also gave an AUC(0-t) ([2]; iv, 1 g, part A cohort 3, single 1.0 g, 3-h i.v. infusion, read-out: AUC0–t) of 75.6 ± 10.4 µg·h/mL, a Vd [2, 9] of 25.7 ± 5 L and an AUC(0-inf) [2, 10] of 101 ± 28.9 µg·h/mL. The Cmax [2, 10] was 31300 ± 6900 ng/mL, the clearance [2, 10] was 177 mL/min and the half-life ([2]; iv, 1 g, part A cohort 4, single 1.0 g, 2-h i.v. infusion, mean ± SD, n=6, read-out: t1/2 (converted)) was 2.2 ± 0.2 h. The Tmax [2, 10] was 2 h, the AUC(0-t) ([2]; iv, 1 g, part A cohort 4, single 1.0 g, 2-h i.v. infusion, read-out: AUC0–24) was 101 ± 28.9 µg·h/mL and the AUC(0-t) ([2]; iv, 1 g, part A cohort 4, single 1.0 g, 2-h i.v. infusion, read-out: AUC0–t) was 101 ± 29 µg·h/mL. The Vd [2, 10] was 22.7 ± 6.4 L, the AUC(0-inf) [2, 11] was 151 ± 14.1 µg·h/mL and the Cmax [2, 11] was 37800 ± 2500 ng/mL. For the same compound, the clearance [2, 11] was 112 mL/min, the half-life ([2]; iv, 1 g, part A cohort 8 (elderly subjects >65 years), single 1.0 g, 3-h i.v. infusion, mean ± SD, n=6, read-out: t1/2 (converted)) was 2.4 ± 0.3 h and the Tmax [2, 11] was 3 h. For the same compound, the AUC(0-t) ([2]; iv, 1 g, part A cohort 8 (elderly subjects >65 years), single 1.0 g, 3-h i.v. infusion, read-out: AUC0–24) was 151 ± 14 µg·h/mL, the AUC(0-t) ([2]; iv, 1 g, part A cohort 8 (elderly subjects >65 years), single 1.0 g, 3-h i.v. infusion, read-out: AUC0–t) was 151 ± 14 µg·h/mL and the Vd [2, 11] was 14.5 ± 2 L. For the same compound, the AUC(0-inf) [2, 12] was 173 ± 25.6 µg·h/mL, the Cmax [2, 12] was 41500 ± 6400 ng/mL and the clearance [2, 12] was 197 mL/min. For the same compound, the half-life ([2]; iv, 2 g, part A cohort 5, single 2.0 g, 3-h i.v. infusion, mean ± SD, n=6, read-out: t1/2 (converted)) was 2.2 ± 0.2 h, the Tmax [2, 12] was 2.5 h and the AUC(0-t) ([2]; iv, 2 g, part A cohort 5, single 2.0 g, 3-h i.v. infusion, read-out: AUC0–24) was 173 ± 25.6 µg·h/mL. For the same compound, the AUC(0-t) ([2]; iv, 2 g, part A cohort 5, single 2.0 g, 3-h i.v. infusion, read-out: AUC0–t) was 173 ± 25.6 µg·h/mL, the Vd [2, 12] was 24.3 ± 3.2 L and the AUC(0-inf) [2, 13] was 368 ± 55.9 µg·h/mL. It also gave a Cmax [2, 13] of 96200 ± 13600 ng/mL, a clearance [2, 13] of 185 mL/min and a half-life ([2]; iv, 4 g, part A cohort 6, single 4.0 g, 3-h i.v. infusion, mean ± SD, n=6, read-out: t1/2 (converted)) of 2.7 ± 0.6 h. It also gave a Tmax [2, 13] of 3 h, an AUC(0-t) ([2]; iv, 4 g, part A cohort 6, single 4.0 g, 3-h i.v. infusion, read-out: AUC0–24) of 367 ± 55.1 µg·h/mL and an AUC(0-t) ([2]; iv, 4 g, part A cohort 6, single 4.0 g, 3-h i.v. infusion, read-out: AUC0–t) of 368 ± 55 µg·h/mL. For the same compound, the Vd [2, 13] was 22.4 ± 3.6 L, the AUC(0-inf) [2, 14] was 732 ± 163 µg·h/mL and the Cmax [2, 14] was 176000 ± 29000 ng/mL. It also gave a clearance [2, 14] of 190 mL/min, a half-life ([2]; iv, 8 g, part A cohort 7, single 8.0 g, 3-h i.v. infusion, mean ± SD, n=6, read-out: t1/2 (converted)) of 2.8 ± 0.4 h and a Tmax [2, 14] of 3 h. For the same compound, the AUC(0-t) ([2]; iv, 8 g, part A cohort 7, single 8.0 g, 3-h i.v. infusion, read-out: AUC0–24) was 730 ± 164 µg·h/mL, the AUC(0-t) ([2]; iv, 8 g, part A cohort 7, single 8.0 g, 3-h i.v. infusion, read-out: AUC0–t) was 731 ± 163 µg·h/mL and the Vd [2, 14] was 28.1 ± 9.5 L. The “drug-related AE: catheter site phlebitis” value ([3]; DUR group, all subjects) was 5.3%, the “drug-related AE: headache” value ([3]; DUR group, all subjects) was 10.6% and the “treatment-emergent AE: catheter site phlebitis” value ([3]; DUR group, all subjects) was 8.5%. For the same compound, the “treatment-emergent AE: headache” value ([3]; DUR group, all subjects) was 13.8%, the “Drug-related AE: Abdominal pain” value [3, 15] was 0 No. (%) of subjects and the “Drug-related AE: Dizziness” value [3, 15] was 4 (4.3) No. (%) of subjects. The “Drug-related AE: Dysgeusia” value [3, 15] was 2 (2.1) No. (%) of subjects, the “Drug-related AE: Nasal congestion” value [3, 15] was 2 (2.1) No. (%) of subjects and the “Drug-related AE: Nausea” value [3, 15] was 2 (2.1) No. (%) of subjects. The “Drug-related AE: Pain in extremity” value [3, 15] was 1 (1.1) No. (%) of subjects, the “Drug-related AE: Phlebitis” value [3, 15] was 2 (2.1) No. (%) of subjects and the “Drug-related AE: Polydipsia” value [3, 15] was 0 No. (%) of subjects. For the same compound, the “Drug-related AE: Pruritus” value [3, 15] was 2 (2.1) No. (%) of subjects, the “Drug-related AE: Somnolence” value [3, 15] was 1 (1.1) No. (%) of subjects and the “Drug-related AE: Upper respiratory infection” value [3, 15] was 1 (1.1) No. (%) of subjects. The “Drug-related AE: Vulvovaginal candidiasis” value [3, 15] was 2 (2.1) No. (%) of subjects, the “drug-related AE: catheter site phlebitis” value [3, 15] was 5 (5.3) No. (%) of subjects and the “drug-related AE: headache” value [3, 15] was 10 (10.6) No. (%) of subjects. The “overall safety and tolerability” value ([3]; alone or with SUL and/or IMI-CIL) was “generally safe and well tolerated”, the “changes in clinical laboratory values, vital signs, or ECG findings” value ([3]; any subject) was “No clinically significant changes” and the “AUC0–24” value [4] was 104.4 ± 6.6 µg·h/mL. It also gave a CL [4] of 9.6 ± 0.6 L/h, a Cmax [4] of 26900 ± 3600 ng/mL and a Vss [4] of 17.6 ± 2.0 L. The AUC(0-t) ([4]; AUC0–24) was 106 ± 31.5 µg·h/mL, the clearance ([4]; CL) was 165 mL/min and the Cmax ([4]; Cmax) was 30000 ± 9200 ng/mL. The Vd ([4]; Vss) was 15.9 ± 2.6 L, the half-life ([4]; t1/2) was 1.8 ± 0.4 h and the fraction unbound [5] was 0.1.
